Where two headings read alike, the source gives them in different places.
Experiments:
[1] = cited from earlier work
Solubility = format: physicochemical; conditions: 25° C. and pH 4.3
[2] = cited from earlier work; remark: listed apart in the source

SMILES	solubility in water ([1]; 25° C. and pH 4.3)	solubility in water as equivalent PMG-acid (Solubility; per 1000 g water)	weight percent "acid" in the saturated solution (Solubility; saturated aqueous solution) [%]	pKa (first of three printed) [2]	pKa (second of three printed) [2]	pKa (third of three printed) [2]	solubility in water ([1]; 25° C.)	solubility in common organic solvents ([1]; acetone, alcohol and xylene)
CC(C)N.O=C(O)CNCP(=O)(O)O [isopropylamine salt of glyphosate]	1050 grams of salt in a liter of water	778 grams of equivalent PMG-acid per liter	37.95	–	–	–	–	–
O=C(O)CNCP(=O)(O)O [glyphosate, N-phosphonomethylglycine]	–	–	–	2.74	5.63	10.18	11.6 grams per liter of water	insoluble

From patent US20060194699A1, “Sprayable non-aqueous, oil-continuous microemulsions and methods of making same” (priority 2003, published 2006)
